Test results taken from US11065253B2, “Arylquinazolines” (Merck Patent GmbH, priority 2013, dated 2021).
Read-outs that look alike come from different tables or passages of the source.

Experiments:
Kv11.1 (hERG) channel = Kv11.1 (hERG) channel (Homo sapiens (Human), UniProt Q12809); assay: Kv11.1 ion channel binding assay (Predictor hERG fluorescence polarisation); details: class symbol marked with asterisk (*)
Protocol: D) Kv11.1 Ion Channel Binding Assay
Kv11.1 (hERG=human ether a go-go related […]) is a cardiac K^+ channel which should if possible not interact with the test substances. This interaction is determined quantitatively with the aid of the Predictor™ hERG Fluorescence Polarizations (FP) Assays from Life Technologies. In the case of this assay principle, cardiomyocyte cell membranes having a certain proportion of Kv11.1 channels are isolated. A dye-labelled Kv11.1 binding partner gives a high fluorescence polarisation signal by interaction with the Kv11.1. In the case of displacement of the dye, a reduction in the fluorescence polarisation signal occurs.
The assay is carried out automatically as follows: 15 nl of the test substances (highest concentration: 10 mM, 10 concentrations: dilution factors 1:3.16, DMSO) are transferred into an empty microtitre plates having 384 wells by means of an acoustic pipetter. 3 μl of the isolated membranes are subsequently added. Membranes and test substances are incubated at 22° C. for 15 min (+/−5 min). In the next step, the dye-labelled binding partner is added, followed by incubation at 22° C. After incubation for two hours, the measurement of the fluorescence polarisation is carried out on an Envision multimode Reader. Measured raw data are standardised with the aid of Genedata Assay Analyzer. The IC50 and % effect values are calculated in Genedata Condoseo.

[1] = system: phospho-serine 2056 DNA-PK in HCT116 cells; assay: DNA-PK phosphorylation at serine 2056 (cellular), ELISA in bleomycin-treated HCT116 cells; assay type: cell-based; details: read-out: IC50 pDNA-PK
Outline: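 Test compounds and bleomycin (10 μM) are added to adherent HCT116 cells for 6 h. Detection uses an HRP-based chemiluminescent ELISA, with phospho-DNA-PK signals standardised to total protein.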

[2] = Homo sapiens, HCT-116, phospho-serine 2056 DNA-PK, bleomycin-treated HCT116 cells
[3] = phospho-serine 2056 DNA-PK, bleomycin-treated HCT116 cells

Sequence of Kv11.1 (hERG) channel (Q12809 whole entry): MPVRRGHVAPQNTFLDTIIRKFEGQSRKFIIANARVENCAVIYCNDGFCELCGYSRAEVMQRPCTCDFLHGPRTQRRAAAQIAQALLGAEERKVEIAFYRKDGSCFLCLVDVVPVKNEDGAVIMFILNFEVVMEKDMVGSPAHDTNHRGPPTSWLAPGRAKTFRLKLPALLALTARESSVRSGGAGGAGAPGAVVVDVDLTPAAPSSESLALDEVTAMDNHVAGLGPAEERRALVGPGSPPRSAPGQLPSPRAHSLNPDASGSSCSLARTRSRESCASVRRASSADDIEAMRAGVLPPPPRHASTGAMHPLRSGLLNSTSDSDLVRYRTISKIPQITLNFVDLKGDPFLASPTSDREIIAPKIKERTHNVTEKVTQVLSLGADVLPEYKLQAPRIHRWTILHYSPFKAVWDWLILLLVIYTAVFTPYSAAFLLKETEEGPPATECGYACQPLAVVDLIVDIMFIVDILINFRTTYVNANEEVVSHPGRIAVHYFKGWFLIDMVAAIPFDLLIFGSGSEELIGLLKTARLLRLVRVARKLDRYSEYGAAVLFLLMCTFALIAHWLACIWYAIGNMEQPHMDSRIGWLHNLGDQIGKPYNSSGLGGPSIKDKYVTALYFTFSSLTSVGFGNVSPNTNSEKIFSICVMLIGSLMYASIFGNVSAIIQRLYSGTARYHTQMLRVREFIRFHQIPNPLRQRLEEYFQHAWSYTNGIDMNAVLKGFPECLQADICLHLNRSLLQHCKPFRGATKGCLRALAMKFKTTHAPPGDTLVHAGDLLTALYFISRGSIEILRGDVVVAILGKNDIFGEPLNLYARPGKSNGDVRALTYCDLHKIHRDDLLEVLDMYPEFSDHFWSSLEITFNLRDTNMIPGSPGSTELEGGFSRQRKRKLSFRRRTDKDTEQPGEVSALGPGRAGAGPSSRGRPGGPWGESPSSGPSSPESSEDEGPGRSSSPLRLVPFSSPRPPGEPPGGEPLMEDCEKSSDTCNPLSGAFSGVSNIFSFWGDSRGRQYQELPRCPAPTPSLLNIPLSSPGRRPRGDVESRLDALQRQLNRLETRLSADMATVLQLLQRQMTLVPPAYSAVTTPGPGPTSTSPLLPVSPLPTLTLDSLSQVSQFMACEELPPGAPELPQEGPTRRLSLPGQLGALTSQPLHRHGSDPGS

COc1ccc(C(O)c2ccc(F)c(-c3ncnc4cc(N5CCOCC5)cc(F)c34)c2)nn1 (stereo not shown) [Example 255, [4-Fluoro-3-(5-fluoro-7-morpholin-4-yl-quinazolin-4-yl)-phenyl]-(6-methoxy-pyridazin-3-yl)-methanol]
Ki [Kv1.11 hERG] (Kv11.1 (hERG) channel): A* | IC50 [1, 2]: < 0.5 µM

COc1ccc(C(O)c2ccc(F)c(-c3ncnc4cc(N5CCOCC5)c(F)cc34)c2)nn1 (stereo not shown) [Example 282, [4-Fluoro-3-(6-fluoro-7-morpholin-4-yl-quinazolin-4-yl)-phenyl]-(6-methoxy-pyridazin-3-yl)-methanol]
Ki [Kv1.11 hERG] (Kv11.1 (hERG) channel): A* | IC50 [1, 2]: 10 to 30 µM

Fc1cc(Cl)c(Cc2ccc3nccn3n2)cc1-c1ncnc2cc(N3CCOCC3)ccc12 [Example 235, 4-(4-Chloro-2-fluoro-5-imidazo[1,2-b]-pyridazin-6-ylmethyl-phenyl)-7-morpholin-4-ylquinazoline]
Ki [Kv1.11 hERG] (Kv11.1 (hERG) channel): A* | IC50 [1, 2]: < 0.5 µM

COc1nccnc1C(O)c1ccc(F)c(-c2ncnc3cc(N4CCOCC4)cc(F)c23)c1 (single isomer, unassigned) [Example 253, [4-Fluoro-3-(5-fluoro-7-morpholin-4-yl-quinazolin-4-yl)-phenyl]-(3-methoxy-pyrazin-2-yl)-methanol]
Ki [Kv1.11 hERG] (Kv11.1 (hERG) channel): A*

NC(=O)C(c1ccc(F)c(-c2ncnc3cc(N4CCOCC4)ccc23)c1)c1nncc2ccsc12 (stereo not shown) [Example 284, 2-[4-Fluoro-3-(7-morpholin-4-yl-quinazolin-4-yl)-phenyl]-2-thieno-[2,3-d}pyridazin-7-yl-acetamide]
Ki [Kv1.11 hERG] (Kv11.1 (hERG) channel): A*

Cc1nccnc1C(C(N)=O)c1cc(-c2ncnc3cc(N4CCOCC4)sc23)c(F)cc1Cl (stereo not shown) [Example 269, 2-[2-Chloro-4-fluoro-5-(6-morpholin-4-yl-thieno[3,2-d}-pyrimidin-4-yl)-phenyl]-2-(3-methyl-pyrazin-2-yl)-acetamide]
Ki [Kv1.11 hERG] (Kv11.1 (hERG) channel): A* | IC50 [1, 2]: 0.5 to 5 µM

COc1ccc(C(C(N)=O)c2cc(-c3ncnc4cc(N5CCOCC5)sc34)c(F)cc2Cl)nn1 (stereo not shown) [Example 272, 2-[2-Chloro-4-fluoro-5-(6-morpholin-4-yl-thieno[3,2-d}-pyrimidin-4-yl)-phenyl]-2-(6-methoxy-pyridazin-3-yl)acetamide]
Ki [Kv1.11 hERG] (Kv11.1 (hERG) channel): A* | IC50 [1, 2]: 0.5 to 5 µM

CNC(=O)C(c1cc(-c2ncnc3cc(N4CCOCC4)ccc23)c(F)cc1Cl)c1nccnc1C (stereo not shown) [Example 254, 2-[2-Chloro-4-fluoro-5-(7-morpholin-4-yl-quinazolin-4-yl)-phenyl]-N-methyl-2-(3-methyl-pyrazin-2-yl)acetamide]
Ki [Kv1.11 hERG] (Kv11.1 (hERG) channel): A* | IC50 [1, 2]: 10 to 30 µM

Cc1nccnc1C(O)c1ccc(F)c(-c2ncnc3cc(N4CCOCC4)sc23)c1 (stereo not shown) [Example 245, [4-Fluoro-3-(6-morpholin-4-yl-thieno[3,2-d}-pyrimidin-4-yl)-phenyl]-(3-methyl-pyrazin-2-yl)-methanol]
Ki [Kv1.11 hERG] (Kv11.1 (hERG) channel): A* | IC50 [1, 2]: < 0.5 µM

CNC(=O)C(c1ccc(F)c(-c2ncnc3cc(N4CCOCC4)ccc23)c1)c1ncccc1Cl (stereo not shown) [Example 230, 2-(3-Chloro-pyridin-2-yl)-2-[4-fluoro-3-(7-morpholin-4-yl-quinazolin-4-yl)-phenyl]-N-methyl-acetamide]
Ki [Kv1.11 hERG] (Kv11.1 (hERG) channel): B* | IC50 [1, 3]: 5 to 10 µM

Cc1nccnc1C(C(N)=O)c1ccc(F)c(-c2ncnc3cc(N4CCOCC4)sc23)c1 (stereo not shown) [Example 270, 2-[4-Fluoro-3-(6-morpholin-4-yl-thieno[3,2-d}-pyrimidin-4-yl)-phenyl]-2-(3-methyl-pyrazin-2-yl)-acetamide]
Ki [Kv1.11 hERG] (Kv11.1 (hERG) channel): A* | IC50 [1, 2]: 5 to 10 µM

[2H]C1([2H])OC([2H])([2H])C([2H])([2H])N(c2ccc3c(-c4cc(C(O)c5nccnc5OC)c(Cl)cc4F)ncnc3c2)C1([2H])[2H] (stereo not shown) [Example 258, [2-Chloro-4-fluoro-5-[7-(2,2,3,3,5,5,6,6-octadeuterio-morpholin-4-yl)-quinazolin-4-yl- ]phenyl]-(3-methoxy-pyrazin-2-yl)-methanol]
Ki [Kv1.11 hERG] (Kv11.1 (hERG) channel): A* | IC50 [1, 3]: < 0.5 µM

COc1ccc(C(O)c2cc(-c3ncnc4cc(N5CCOCC5)cc(F)c34)c(F)cc2Cl)nn1 (single isomer, unassigned) [Example 263, [2-Chloro-4-fluoro-5-(5-fluoro-7-morpholin-4-yl-quinazolin-4-yl)-phenyl]-(6-methoxy-pyridazin-3-yl)-methanol]
Ki [Kv1.11 hERG] (Kv11.1 (hERG) channel): A*

Cc1nccnc1C(O)c1ccc(F)c(-c2ncnc3cc(N4CCOCC4)sc23)c1 (stereo not shown) [Example 246, [4-Fluoro-3-(6-morpholin-4-yl-thieno[3,2-d}-pyrimidin-4-yl)-phenyl]-(3-methyl-pyrazin-2-yl)-methanol]
Ki [Kv1.11 hERG] (Kv11.1 (hERG) channel): A*

Cc1nccnc1C(O)c1cc(-c2ncnc3cc(N4CCOCC4)sc23)c(F)cc1Cl (stereo not shown) [Example 264, [2-Chloro-4-fluoro-5-(6-morpholin-4-yl-thieno[3,2-d}-pyrimidin-4-yl)-phenyl]-(3-methyl-pyrazin-2-yl)-methanol]
Ki [Kv1.11 hERG] (Kv11.1 (hERG) channel): A* | IC50 [1, 2]: < 0.5 µM

Cc1nccnc1C(O)c1ccc(F)c(-c2ncnc3cc(N4CCOCC4)sc23)c1 (stereo not shown) [Example 265, [4-Fluoro-3-(6-morpholin-4-yl-thieno[3,2-d}-pyrimidin-4-yl)-phenyl]-(3-methyl-pyrazin-2-yl)-methanol]
Ki [Kv1.11 hERG] (Kv11.1 (hERG) channel): A* | IC50 [1, 3]: < 0.5 µM

COc1nccnc1C(O)c1cc(-c2ncnc3cc(N4CCOCC4)cc(F)c23)c(F)cc1Cl (stereo not shown) [Example 249, [2-Chloro-4-fluoro-5-(5-fluoro-7-morpholin-4-yl-quinazolin-4-yl)-phenyl]-(3-methoxy-pyrazin-2-yl)-methanol]
Ki [Kv1.11 hERG] (Kv11.1 (hERG) channel): A* | IC50 [1, 2]: < 0.5 µM

COc1ccc(C(O)c2ccc(F)c(-c3ncnc4cc(N5CCOCC5)cc(F)c34)c2)nn1 (stereo not shown) [Example 256, [4-Fluoro-3-(5-fluoro-7-morpholin-4-yl-quinazolin-4-yl)-phenyl]-(6-methoxy-pyridazin-3-yl)-methanol]
Ki [Kv1.11 hERG] (Kv11.1 (hERG) channel): A* | IC50 [1, 3]: < 0.5 µM

COC(c1ccc(F)c(-c2ncnc3cc(N4CCOCC4)ccc23)c1)c1nccnc1C (stereo not shown) [Example 352]
Ki [Kv1.11 hERG] (Kv11.1 (hERG) channel): A*

Cc1nccnc1[C@@H](O)c1ccc(F)c(-c2ncnc3cc(N4CCOCC4)cc(F)c23)c1 [Example 251, (S)-[4-fluoro-3-(5-fluoro-7-morpholin-4-ylquinazolin-4-yl)-phenyl]-(3-methyl-pyrazin-2-yl)-methanol]
Ki [Kv1.11 hERG] (Kv11.1 (hERG) channel): A* | IC50 [1, 2]: 0.5 to 5 µM

NC(=O)C(c1ccc(F)c(-c2ncnc3cc(N4CCOCC4)ccc23)c1)c1nccn2ncnc12 (stereo not shown) [Example 280, 2-[4-Fluoro-3-(7-morpholin-4-yl-quinazolin-4-yl)-phenyl]-2-[1,2,4]-triazolo[1,5-a]-pyrazin-8-yl-acetamide]
Ki [Kv1.11 hERG] (Kv11.1 (hERG) channel): A* | IC50 [1, 2]: 10 to 30 µM

Cc1nccnc1C(O)c1ccc(F)c(-c2ncnc3cc(N4CCOCC4)cc(F)c23)c1 (stereo not shown) [Example 268, [4-Fluoro-3-(5-fluoro-7-morpholin-4-yl-quinazolin-4-yl)-phenyl]-(3-methyl-pyrazin-2-yl)-methanol]
Ki [Kv1.11 hERG] (Kv11.1 (hERG) channel): A* | IC50 [1, 2]: < 0.5 µM

COc1nccnc1C(O)c1cc(-c2ncnc3cc(N4CCOCC4)cc(F)c23)c(F)cc1Cl (stereo not shown) [Example 250, [2-Chloro-4-fluoro-5-(5-fluoro-7-morpholin-4-yl-quinazolin-4-yl)-phenyl]-(3-methoxy-pyrazin-2-yl)-methanol]
Ki [Kv1.11 hERG] (Kv11.1 (hERG) channel): A* | IC50 [1, 3]: < 0.5 µM

COc1nccnc1C(O)c1ccc(F)c(-c2ncnc3cc(N4CCOCC4)cc(F)c23)c1 (stereo not shown) [Example 252, [4-Fluoro-3-(5-fluoro-7-morpholin-4-yl-quinazolin-4-yl)-phenyl]-(3-methoxy-pyrazin-2-yl)-methanol]
Ki [Kv1.11 hERG] (Kv11.1 (hERG) channel): A* | IC50 [1, 3]: < 0.5 µM

CN1N=C(C(O)c2cc(-c3ncnc4cc(N5CCOCC5)ccc34)c(F)cc2Cl)CCC1=O (stereo not shown) [Example 288, 6-{[2-Chloro-4-fluoro-5-(7-morpholin-4-yl-quinazolin-4-yl)-phenyl]hydroxy-methyl}-2-methyl-4,5-dihydro-2H-pyridazin-3-one]
Ki [Kv1.11 hERG] (Kv11.1 (hERG) channel): A* | IC50 [1, 2]: 5 to 10 µM

Cc1nccnc1C(O)c1cc(-c2ncnc3cc(N4CCOCC4)ccc23)ccc1Cl (stereo not shown) [Example 427, [2-Chloro-5-(7-morpholin-4-yl-quinazolin-4-yl)-phenyl]-(3-methyl-pyrazin-2-yl)-methanol (Ena 1)]
IC50 ([1]; cellular DNA-PK phosphorylation at serine 2056, HCT116 cells): 0.5 to 5 µM
